Assay results taken from paper PMC3873466 (PLoS ONE, 2013).
pKi: −log10 of the molar value.

What was measured:
[1] = target: F. tularensis ParE (full length) (Francisella tularensis, UniProt A0A0J9WZF0); experiment: biochemical
[2] = target: E. coli GyrB (full length) (Escherichia coli, UniProt P0AES6); experiment: biochemical

Chain of F. tularensis ParE (full length) (A0A0J9WZF0 whole entry, looked up): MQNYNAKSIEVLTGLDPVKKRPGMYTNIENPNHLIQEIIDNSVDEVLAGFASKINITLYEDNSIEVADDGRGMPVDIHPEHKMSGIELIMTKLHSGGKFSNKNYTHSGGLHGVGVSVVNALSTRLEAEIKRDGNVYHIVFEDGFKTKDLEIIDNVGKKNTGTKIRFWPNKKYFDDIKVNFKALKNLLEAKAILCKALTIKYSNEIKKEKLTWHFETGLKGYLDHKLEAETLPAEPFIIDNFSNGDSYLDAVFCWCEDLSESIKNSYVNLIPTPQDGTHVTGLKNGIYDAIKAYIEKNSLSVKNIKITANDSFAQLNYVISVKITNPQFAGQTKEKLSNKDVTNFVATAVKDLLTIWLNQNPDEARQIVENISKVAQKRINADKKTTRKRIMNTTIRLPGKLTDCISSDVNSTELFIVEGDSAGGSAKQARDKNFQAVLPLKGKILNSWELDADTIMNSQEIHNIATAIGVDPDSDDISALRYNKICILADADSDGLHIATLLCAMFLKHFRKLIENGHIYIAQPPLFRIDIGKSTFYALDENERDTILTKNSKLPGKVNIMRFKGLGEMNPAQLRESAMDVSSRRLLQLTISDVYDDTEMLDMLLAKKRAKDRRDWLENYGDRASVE

Structure (SMILES)	pKi [1]	pKi [2]
CNc1cc(F)cc2c1[nH]c1nc(Oc3cnc(C)nc3)nc(N3C[C@H]4CCN[C@H]4C3)c12 [C3, 6-fluoro-4-((3aR,6aR)-hexahydropyrrolo[3,4-b]pyrrol-5(1H)-yl)-N-methyl-2-((2-methylpyrimidin-5-yl)oxy)-9H-pyrimido[4,5-b]indol-8-amine]	> 9.40	–
CNc1cc(F)cc2c1[nH]c1nc(Oc3cnc(C)nc3)nc(N3C[C@@H]4[C@H](N)C[C@]4(C)C3)c12 [C4, 4-((1S,5R,6R)-6-amino-1-methyl-3-azabicyclo[3.2.0]heptan-3-yl)-6-fluoro-N-methyl-2-((2-methylpyrimidin-5-yl)oxy)-9H-pyrimido[4,5-b]indol-8-amine]	9.10	9.52
